According to patent publication US20080108645A1, “Dihydrotetrabenazines And Pharmaceutical Compositions Containing Them” (CAMBRIDGE LABORATORIES, (IRELAND), LTD., priority 2004, published 2008):

Columns and labels:
Monoamine Oxidase MAO-A = target: T1, Monoamine Oxidase MAO-A (Homo sapiens, UniProt P21397); test: Monoamine Oxidase MAO-A inhibition; assay type: biochemical; details: for inhibition at 10 µM: read-out: Percentage Inhibition of Enzyme Activity, MAO-A
T1 sequence (P21397 1-527): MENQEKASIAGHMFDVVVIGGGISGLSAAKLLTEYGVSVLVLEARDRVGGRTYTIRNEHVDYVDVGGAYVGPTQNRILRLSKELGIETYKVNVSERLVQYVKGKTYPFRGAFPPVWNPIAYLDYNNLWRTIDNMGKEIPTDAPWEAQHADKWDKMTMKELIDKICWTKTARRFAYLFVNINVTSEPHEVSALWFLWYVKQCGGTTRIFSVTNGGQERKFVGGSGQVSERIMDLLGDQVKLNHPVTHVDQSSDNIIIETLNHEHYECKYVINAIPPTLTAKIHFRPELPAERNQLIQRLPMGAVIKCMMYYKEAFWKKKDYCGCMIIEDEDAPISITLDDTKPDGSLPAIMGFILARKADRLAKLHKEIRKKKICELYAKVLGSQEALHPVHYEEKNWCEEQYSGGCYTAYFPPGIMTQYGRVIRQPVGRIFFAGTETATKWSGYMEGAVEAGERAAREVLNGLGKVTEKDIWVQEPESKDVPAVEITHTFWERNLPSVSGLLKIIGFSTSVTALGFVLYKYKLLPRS
Experimental: Isomers B and C were tested for their ability to inhibit enzymes involved in the processing of monoamines in the CNS, namely Catechol O-Methyl Transferase (COMT), Monoamine Oxidase A and Monoamine Oxidase B. The assay methods used are described below and the results are set out in Table 7. (a) Catechol O-Methyl Transferase (COMT) Inhibition • Source: […] None • Incubation time: 60 minutes @ 37° C. • Incubation buffer: 100 mM potassium phosphate, 10 mM MgCl2, 3 mM DTT containing 12 units/ml adenosine deaminase, pH 7.4 • Quantitation method: […]

Caco-2 monolayer = details: Caco-2
Text: (§2) The assay relies on the ability of Caco-2 cells to differentiate into enterocytes when cultured on a microporous filter for a period of approximately 21 days. During the culture period, the Caco-2 cells undergo spontaneous morphological and biochemical changes, which produce a polarized monolayer with a well-defined brush border on the apical surface, as well as tight cellular junctions. Therefore, these cells may be used as an in vitro model for the analysis of drug permeability.
(§3) Absorption across the Caco-2 monolayer can be measured in two directions: apical-to-basolateral or basolateral-to-apical, by adding the compound to the apical or the basolateral chamber, respectively. At various time-points, samples are collected from the receiver-chamber for analysis for the rate of absorption as measured by the apparent permeability coefficient (Papp) across the monolayer.
(§4) The Papp value reflects a combination of the test article permeability through both transcellular (through cell membranes) and the paracellular (across the tight junctions between the cells) pathways. The relative contribution of these pathways depends upon the pKa, partition coefficient (log D), molecular radius, and charge of the test article at a given pH. Papp values can then be used to rank-order compounds for their permeability through Caco-2 monolayers.
(§5) Absorption was determined at pH 7.4 across cell monolayers in the apical-to-basolateral direction. Caco-2 cells used to estimate Papp values were grown for 26 days on Transwell inserts in 12-well plates. Monolayer integrity was verified before and after the absorption assay by the methods of transepithelial electrical resistance (Ohm-cm^2) and Lucifer Yellow.
(§6) On the day of the assay, the reference standards were diluted in Hank's balanced salt solution (HBSS), pH 7.4 to a final concentration of 50 μM. […] Dihydrotetrabenazine isomer samples were prepared at a concentration of 50 mM in DMSO. Each stock solution was further diluted in HBSS buffer (pH 7.4) to a final working concentration of 50 μM
(§7) The Caco-2 cell suspensions were prepared as follows. […] Once the cell density and viability were determined, Caco-2 cells were diluted in culture medium to a final working concentration of 2.0×10^5 cells/ml. The Caco-2 culture medium contained Dulbecco's Modified Eagle Medium, 10% fetal bovine serum, 100 μM non-essential amino acids, 100 U/ml penicillin and 100 μg/ml streptomycin.
(§8) Costar polycarbonate membranes (0.4 μm pore size) were pre-equilibrated with Caco-2 culture medium for 1 hour in a 37° C. water-jacketed incubator with 5% CO2. The content of the apical chamber was removed and replaced with 500 μl of Caco-2 cell suspension (200 000 cells/ml). Cells were further maintained in culture for 26 days in a 37° C. water-jacketed incubator with 5% CO2.
(§9) Prior to the assay, all monolayers were washed twice with HBSS and their transepithelial electrical resistance (TEER) was measured with a Millicell-ERS meter. TEER values obtained in the absence of cells were subtracted as background signal. Only monolayer with TEER values over 150 Ohm-cm^2 were used for the absorption assay experiment.
(§10) All absorption experiments were conducted in triplicate at pH 7.4. The rate of absorption of each reference standard and dihydrotetrabenazine test article was assessed in the apical-to-basolateral direction. Aliquots (100 μl) of each working solution (reference standards and test articles at 50 μM) were set aside at the beginning of the assay for the determination of the initial concentration (Co).
(§11) Absorption experiments were initiated by replacing the content of the donor chamber with 500 μl of Hanks Balanced Salt Solution containing test articles or reference compounds. Cells were returned to the CO2 incubator for the absorption assay. Samples of 100 μl were collected from the receiver and donor chambers after 1 hour and were used to determine the percentage of recovery.

Dopamine D2L Receptor = target: T2, Dopamine D2L Receptor (Homo sapiens, UniProt P14416); test: Dopamine D2L receptor radioligand binding; details: 10 μM; 0.16 nM [3H] Spiperone
T2 construct: expressed in transfected cells; host or cells: CHO cells
T2 sequence (P14416 whole entry): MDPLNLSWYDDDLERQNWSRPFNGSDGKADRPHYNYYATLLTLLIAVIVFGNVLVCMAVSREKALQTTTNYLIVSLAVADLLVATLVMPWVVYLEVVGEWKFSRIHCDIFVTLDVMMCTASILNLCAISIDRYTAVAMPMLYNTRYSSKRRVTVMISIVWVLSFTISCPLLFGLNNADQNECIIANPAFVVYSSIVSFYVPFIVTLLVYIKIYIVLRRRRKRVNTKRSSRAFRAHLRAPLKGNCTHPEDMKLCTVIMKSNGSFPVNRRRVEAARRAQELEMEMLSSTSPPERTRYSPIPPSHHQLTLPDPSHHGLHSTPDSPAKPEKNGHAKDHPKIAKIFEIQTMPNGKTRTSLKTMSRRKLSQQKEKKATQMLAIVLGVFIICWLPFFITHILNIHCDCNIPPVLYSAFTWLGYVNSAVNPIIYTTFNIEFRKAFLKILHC
Experimental: (§1) (a) Adrenergic α2A Receptor: • Reference: S. Uhlen et al. J. Pharmacol. Exp. Ther., 271:1558-1565 (1994) • Source: Human recombinant insect Sf9 cells • Ligand: 1 nM [^3H] […] J. Pharmacol., 99:803-809, (1990) • Source: Wistar rat cerebral cortex • Ligand: 2 nM [3H]

Male Sprague-Dawley rats = test: Spontaneous locomotor activity in rats (sedative properties); assay type: in vivo, rat; details: for sedative effect (in words): 0.3-10 mg/kg i.p., 45 minutes and 3 hours after administration
Experimental: A study was carried out in rats to determine whether the dihydrotetrabenazine isomers of the invention have sedative properties. The effects of the isomers on spontaneous locomotor activity in rats were compared with the effects produced by tetrabenazine and haloperidol using the methods set out below.
Male Sprague-Dawley rats, (Charles River Laboratories, Saint-Germain/L'Arbresle, France), weighing 200-250 g at the beginning of the study, were used for the studies. The rats were housed, 2 or 3 per cage, in Makrolon type III cages, in a room set up with the following environmental conditions: temperature: 20±2° C., humidity: minimum 45%, air changes: >12 per hour, light/dark cycle of 12 h/12 h [on at 7:00 a.m.]. The rats were allowed to acclimatize to their conditions for at least five days before commencement of the study. The rats received food (Dietex, Vigny, France, ref. 811002) and water (tap water in water bottle) ad libitum.
Solutions of each test compound in corn oil were freshly prepared on the day of the experiment. Haloperidol was prepared in hydroxyethylcellulose, 0.5% in deionized water. Either the vehicle or the test compounds were administered as a single dose (0.3, 1, 3 and 10 mg/kg, 2 mL/kg i.p.). The reference compound haloperidol (1 mg/kg) was administered i.p. (2 mL/kg).
The animals were placed in plexiglass cages under a video camera in a room with low light intensity (maximum 50 lux). At forty five minutes and 3 hours after administration, locomotor activity was determined during 20 minute periods using a video image analyzer (Videotrack, View Point, France). Locomotor activity was recorded in the reference group (haloperidol) at 1 hour after administration. The number and duration of ambulatory movements and duration of inactivity was measured. At the end of the locomotor activity measurement (45 minutes and 3 hours), palpebral closure and arousal were be scored as follows in the plexiglass cage:
The number of occurrences and duration (in seconds) of ambulatory (large) movements and the duration of periods of inactivity (seconds) was determined during two 20 minute periods (45 minutes and 3 hours after administration) using a video image analyzer (Videotrack, ViewPoint, Lyon, France). Image tracking was performed using a video camera placed above the plexiglass cage, recording overall locomotor activity. Images recorded with the video camera were digitalized and displacement of the centre of gravity of the digital image spots was tracked and analyzed using the following method: the speed of displacement of the centre of gravity of the spot was measured and two threshold values were set to define the type of movement: threshold 1 (high speed) and threshold 2 (low speed). When the animal moved and the speed of displacement of the centre of gravity of the spot was above threshold 1, the movement was considered as an ambulatory movement.
The results were expressed as the means±SEMs of the 12 individual values. Statistical analyses were carried out using ANOVA (one way) and Dunnett's t-test and with the non parametric test of Kruskal-Wallis followed by a Mann & Whitney U-test for the sedation cotation. A p value of p<0.05 was taken as indicating significance.

[1] = system: Imidazoline I2 (Central) Receptor; test: Imidazoline I2 (central) receptor radioligand binding; set-up: species or system Wistar rat; details: 10 μM; 2 nM [3H] Idazoxan
Experimental: as §1

in vitro = details: human, Caco-2, pH 7.4
Text: as §2, §3, §4, §5, §6, §7, §8, §9, §10, §11

[2] = target: T3, Dopamine Transporter (DAT) (Homo sapiens, UniProt Q01959); test: Dopamine transporter (DAT) radioligand binding; details: for Percentage Inhibition of Specific Binding, DAT: 10 μM, 0.15 nM [125I] RTI-55
T3 construct: expressed in transfected cells; host or cells: CHO cells
T3 sequence (Q01959 whole entry): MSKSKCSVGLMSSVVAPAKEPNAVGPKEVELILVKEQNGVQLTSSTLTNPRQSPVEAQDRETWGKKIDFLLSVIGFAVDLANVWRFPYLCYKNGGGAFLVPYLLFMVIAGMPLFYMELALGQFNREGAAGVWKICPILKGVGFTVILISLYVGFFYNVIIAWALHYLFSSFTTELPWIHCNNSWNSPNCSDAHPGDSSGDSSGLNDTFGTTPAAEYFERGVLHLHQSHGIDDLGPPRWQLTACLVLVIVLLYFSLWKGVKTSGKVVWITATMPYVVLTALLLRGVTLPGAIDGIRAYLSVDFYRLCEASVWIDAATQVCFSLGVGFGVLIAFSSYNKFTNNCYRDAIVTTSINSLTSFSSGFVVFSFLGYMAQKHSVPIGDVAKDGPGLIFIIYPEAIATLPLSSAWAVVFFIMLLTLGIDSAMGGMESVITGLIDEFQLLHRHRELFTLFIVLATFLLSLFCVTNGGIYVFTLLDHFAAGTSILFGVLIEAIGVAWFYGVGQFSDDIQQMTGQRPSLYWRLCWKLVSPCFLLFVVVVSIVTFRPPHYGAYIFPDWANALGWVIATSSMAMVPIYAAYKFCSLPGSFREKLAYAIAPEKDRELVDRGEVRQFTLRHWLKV
Experimental: as §1

[3] = 0.3 mg/kg i.p., 45 minutes after administration
[4] = 0.3 mg/kg i.p., 3 hours after administration
[5] = 1 mg/kg i.p., 45 minutes after administration
[6] = 1 mg/kg i.p., 3 hours after administration
[7] = 3 mg/kg i.p., 45 minutes after administration
[8] = 3 mg/kg i.p., 3 hours after administration
[9] = 10 mg/kg i.p., 45 minutes after administration
[10] = 10 mg/kg i.p., 3 hours after administration

## COc1cc2c(cc1OC)[C@H]1C[C@H](O)[C@@H](CC(C)C)CN1CC2 (single isomer, unassigned) [Isomer B, 3,11b-cis-dihydrotetrabenazine]
Monoamine Oxidase MAO-A
  inhibitory activity against monoamine oxidase isoform A (in words): no inhibitory activity
  inhibition at 10 µM: 3%
Caco-2 monolayer
  permeability in the Caco-2 model (in words): medium permeability
Dopamine D2L Receptor
  Percentage Inhibition of Specific Binding, D2L Receptor: 16%
Male Sprague-Dawley rats; [3]
  Inactivity Duration: 346.1 ± 36.9 s
  Large movements Duration: 72.0 ± 9.6 s
  Large movements Occurrence: 268 ± 36
Male Sprague-Dawley rats; [4]
  Inactivity Duration: 566.4 ± 44.3 s
  Large movements Duration: 28.9 ± 9.2 s
  Large movements Occurrence: 101 ± 29
Male Sprague-Dawley rats; [5]
  Inactivity Duration: 334.0 ± 23.2 s
  Large movements Duration: 87.0 ± 7.6 s
  Large movements Occurrence: 297 ± 22
Male Sprague-Dawley rats; [6]
  Inactivity Duration: 525.8 ± 28.6 s
  Large movements Duration: 34.5 ± 6.2 s
  Large movements Occurrence: 125 ± 18
Male Sprague-Dawley rats; [7]
  Inactivity Duration: 342.2 ± 33.3 s
  Large movements Duration: 89.1 ± 12.4 s
  Large movements Occurrence: 313 ± 38
Male Sprague-Dawley rats; [8]
  Inactivity Duration: 530.5 ± 38.0 s
  Large movements Duration: 31.1 ± 6.5 s
  Large movements Occurrence: 113 ± 17
Male Sprague-Dawley rats; [9]
  Inactivity Duration: 333.1 ± 26.9 s
  Large movements Duration: 84.0 ± 11.2 s
  Large movements Occurrence: 298 ± 37
Male Sprague-Dawley rats; [10]
  Inactivity Duration: 515.0 ± 53.0 s
  Large movements Duration: 30.9 ± 6.4 s
  Large movements Occurrence: 120 ± 26
Male Sprague-Dawley rats
  sedative effect (in words): no sedative effects were observed
[1]
  Percentage Inhibition of Specific Binding, I2 Receptor: 8%
In vitro
  recovery at 1 h, 50 μM: 90.1 ± 6.5%
[2]
  DAT binding activity (in words): lack Dopamine Transporter (DAT) binding activity
  Percentage Inhibition of Specific Binding, DAT: 4%

## COc1cc2c(cc1OC)[C@H]1C[C@@H](O)[C@@H](CC(C)C)CN1CC2 (single isomer, unassigned) [Isomer C, 3,11b-cis-dihydrotetrabenazine]
Monoamine Oxidase MAO-A
  inhibitory activity against monoamine oxidase isoform A (in words): no inhibitory activity
  inhibition at 10 µM: 3%
Caco-2 monolayer
  permeability in the Caco-2 model (in words): high permeability
Dopamine D2L Receptor
  Percentage Inhibition of Specific Binding, D2L Receptor: −14%
Male Sprague-Dawley rats; [3]
  Inactivity Duration: 323.7 ± 25.6 s
  Large movements Duration: 79.2 ± 10.0 s
  Large movements Occurrence: 285 ± 34
Male Sprague-Dawley rats; [4]
  Inactivity Duration: 519.3 ± 33.7 s
  Large movements Duration: 31.4 ± 6.0 s
  Large movements Occurrence: 113 ± 19
Male Sprague-Dawley rats; [5]
  Inactivity Duration: 324.6 ± 38.1 s
  Large movements Duration: 71.8 ± 8.3 s
  Large movements Occurrence: 295 ± 30
Male Sprague-Dawley rats; [6]
  Inactivity Duration: 510.2 ± 44.9 s
  Large movements Duration: 30.3 ± 6.5 s
  Large movements Occurrence: 128 ± 24
Male Sprague-Dawley rats; [7]
  Inactivity Duration: 322.7 ± 27.8 s
  Large movements Duration: 84.0 ± 9.4 s
  Large movements Occurrence: 308 ± 36
Male Sprague-Dawley rats; [8]
  Inactivity Duration: 493.6 ± 38.5 s
  Large movements Duration: 30.2 ± 5.5 s
  Large movements Occurrence: 125 ± 22
Male Sprague-Dawley rats; [9]
  Inactivity Duration: 368.7 ± 30.9 s
  Large movements Duration: 66.5 ± 9.9 s
  Large movements Occurrence: 254 ± 32
Male Sprague-Dawley rats; [10]
  Inactivity Duration: 465.7 ± 49.0 s
  Large movements Duration: 42.7 ± 8.0 s
  Large movements Occurrence: 164 ± 30
Male Sprague-Dawley rats
  sedative effect (in words): no sedative effects were observed
Male Sprague-Dawley rats; 3 hours after administration
  hyperlocomotor effect (in words): slight and non-significant hyperlocomotor effect
[1]
  Percentage Inhibition of Specific Binding, I2 Receptor: 0%
In vitro
  Papp A→B at 1 h, 50 μM: 21.1 ×10⁻⁶ cm/s
  recovery at 1 h, 50 μM: 102 ± 12.4%
[2]
  DAT binding activity (in words): lack Dopamine Transporter (DAT) binding activity
  Percentage Inhibition of Specific Binding, DAT: −2%
